# Measured values reported in US20060094676A1, “Compositions and methods for treating cancer using compositions comprising an inhibitor of endothelin receptor activity” (priority 2004, published 2006).
# Assays:
# VEGF = assay: Real-time RT-PCR of VEGF transcripts; assay type: cell-based, human; conditions: BQ788 3 days
# Protocol: Equal amounts of RNA from cells that were treated with BQ788 for 3 days were subjected to real-time RT-PCR analysis for the detection VEGF (A), HIF-1α (B) and Gravin (C) transcripts. Differences in expression levels are shown as x fold change and are statistically significant (p<0.05) unless a column in marked as non significant (N.S.). Sections of two representative tumors derived from a human melanoma cell line grown in nude mice and injected either with vehicle (D) or BQ788 (E) were stained with anti CD-31 to highlight blood vessels (brown staining, Lahav et al, 1999).
# RNA was prepared from the different cell lines in different culture conditions using SV total RNA isolation kit (Promega) according to the manufacturer's protocol. For each sample RNA concentration was determined using the total RNA nano procedure of an Agilent bioanalyzer. A stock of SK-MEL-28 RNA aliquots was prepared containing 10, 20, 50, 100, 200, 500 and 1000 ng/12 μl for use as a standard curve and kept in −80° C. For the experimental unknown samples, a stock of 100 ng/12 μl RNA aliquots from each cell line and condition was prepared and stored at −80° C. For each real-time experiment one series of standard curve and unknown experimental series of aliquots was put on ice for use. Complementary DNA was prepared by adding to each tube 0.5 μl of random hexamers (Promega) and 1 μl of 10 mM dNTP mix (Promega) and incubating at 65° C. for 5 min. 4 μl of 5× M-MLV buffer (Promega), 1 μl of the RNase inhibitor RNasin (Promega) and 1 μl of M-MLV RT RNase H (Promega) were then added and the solution was incubated at 42° C. for 50 min followed by 15 min at 70° C. For real time reactions 15 μl of each cDNA sample were transferred to 3 wells in a 386 well plate. To each well we added 10 μl of TaqMan universal PCR master mix (Applied Biosystems), 1 μl of primers+probe mix (Assays-on-Demand from Applied Biosystems: EDNRB Hs00240747, BCL-2A1 Hs00187845, PARP-3 Hs00154151, VEGF Hs00173626, HIF-1α Hs00153153 and Gravin Hs00374507) and 4 μl of nuclease free water (Promega). Wells containing water instead of cDNA served as negative controls. The samples were subjected to 40 cycles of 15 sec at 95° C. and 1 min at 60° C. A standard curve of Ct versus RNA quantity was established and accordingly the Ct in the unknown samples was correlated to quantity of transcript.
# Real-time PCR analysis confirmed that VEGF expression levels increased 18-fold in BQ788 treated LN-met cells and 65-fold in SK-MEL-28 cells, compared to only 2-fold in primary melanoma, and no change in the Cut-met line (FIG. 5). The changes in VEGF expression levels can be explained, at least in part, by changes in the expression levels of its known regulator hypoxia inducible factor-1 oc (HIF-1α) (Maxwell, et al., Oxygen sensors and angiogenesis, Semin. Cell Dev. Biol., 13:29-37 (2002)). […]
# caspase 6 = assay: Mch2/Caspase-6 colorimetric protease assay on cell lysates; assay type: cell-based, human; conditions: SK-MEL-28; after 3 days of treatment with BQ788
# Protocol: Equal amounts of RNA from cells that were treated with BQ788 for 3 days were subjected to real-time RT-PCR analysis for the detection of BCL-2A1 (A) and ADP ribosyltransferase 3 (B) transcripts. Total amounts are represented in A while relative (to control) values are shown in B. Differences in expression levels are shown as x fold decrease and are statistically significant (p<0.05) unless a column in marked as non significant (N.S.). Lysates of BQ788 treated cells and controls were subjected to an apoptosis ELISA detection test (C). SK-MEL-28 cells were cultured with pan caspase inhibitor (D) or with caspase 6 inhibitor (E) with or without BQ788 for 2.5 days. […] SK-MEL-28 cells were cultured for 3 days in the presence of BQ788 and assayed for caspase 6 activity (F). […]
# Caspase 3 inhibitor I (inhibits caspases 3, 6, 7, 8 & 10), cell-permeable (Calbiochem) and Caspase 6 inhibitor II, Cell-Permeable (Calbiochem) were dissolved in DMSO. […] Cell viability was measured using MTS solution in parallel experiments at 5 different time points. Caspase 6 activity was measured using Mch2/Caspase-6 Colorimetric Protease Assay Kit according to the manufacturer's instructions. […] Caspase 6 activity was measured in 4 samples containing equal amounts of protein from each condition by spectrophotometric detection of a chromophore following its release from the labeled caspase 6 substrate VEID. […]
# [1] = system: tumors derived from a human melanoma cell line grown in nude mice; conditions: cited from earlier work
smiles,measurement,setting,value
"CCCC[C@@H](NC(=O)[C@@H](Cc1cn(C(=O)OC)c2ccccc12)NC(=O)[C@H](CC(C)(C)C)NC(=O)N1[C@H](C)CCC[C@@H]1C)C(=O)O [BQ788, N-cis-2,6-dimethylpiperidinocarbonyl-L-γ-methylleucyl-D-1-methoxycarbonyltrptophanyl-D-norleucine]",VEGF expression level change,VEGF; Cut-met line,no change
same,increase in VEGF expression levels,VEGF; LN-met cells,18 fold
same,increase in VEGF expression levels,VEGF; SK-MEL-28 cells,65 fold
same,increase in VEGF expression levels,VEGF; primary melanoma,2 fold
same,caspase 6 activation,caspase 6,could be detected
same,tumor growth,[1]; human melanoma tumors in nude mice injected with BQ788,inhibition of growth
same,tumor size,"[1]; tumors treated systemically, nude mice",shrinkage of tumors
